Source: patent publication US20060247420A1, “Immune cell recptor ligand and immune cell receptor” (priority 2002, published 2006)

Key:
[1] = tested on: Letal mRNA in A2008 ovarian carcinoma cell line; test: Letal mRNA expression in treated A2008 cells, real-time quantitative RT-PCR (TaqMan); format: cell-based, human
Description: Quantification of Letal by real-time quantitative RT-PCR. Letal expression was analyzed by TaqMan analysis as previously described (Garcia et al, FASEB J 15(10):1819-1821 (2001)). The Letal system consisted of the primers: Letal.F, 5′-[…]-3′ (SEQ ID NO:13); Letal.R, 5′-[…]-3′ (SEQ ID NO:14), and the probe Letal.P, 5′-(FAM)[…] (SEQ ID NO:15) (TAMRA)-3′. The cDNA load was normalized to human GAPDH with primers GAPDH F: 5′-[…]-3′ (SEQ ID NO:16) and GAPDH R: 5′[…]-3′ (SEQ ID NO:17) and the probe GAPDH.P: 5′(FAM) […] (TAMRA)-3′ (SEQ ID NO:18).
Tissues, cell lines and purification of cells. Normal human tissues were obtained from the Cooperative Human Tissue Network (Zhang et al, N. Engl. J. Med. 348(3):203-213 (2003)). A2008 ovarian carcinoma cell line was treated for 24 h with serum-free medium (control) or serum-free medium containing either 10 U/ml interleukin (IL)-1β, 10 ng/ml tumor necrosis factor (TNF-α), 40 ng/ml interferon (IFNγ), 0.5 μg/ml Lypopolyssaccaride (LPS), or 10 ng/ml TNF-α plus 40 ng/ml IFN-γ. 10 ng/ml PMA was kept for 4 hs and retinoic acid for 24, 48, and 72 hs. All the cytokines were from Peprotech (Rocky Hill, N.J.), except retinoic acid (Sigma, St Louis, Mo.). Additionally, cells were cultured in media without glucose for 48 hs or under hypoxia (1.5% O2) for 16 hs. Fresh peripheral blood lymphocytes were obtained by leukapheresis and elutriation. […]

[2] = tested on: NKG2D on peripheral CD8^+ T-cells; test: NKG2D expression on CD8+ lymphocytes after co-culture with K32 aAPCs, flow cytometry; format: cell-based, human; details: peripheral CD8^+ T-cells co-cultured 4 days with K32 aAPCs; versus mock-transduced K32
Description: (§1) CD8^+ lymphocyte stimulation and cytokine release. To analyze the effects of Letal on the T-cell proliferation and production of cytokines, a previously described artificial antigen-presenting cell (aAPC) model was used (Maus et al, Nat. Biotechnol. 20(2):143-148 (2002)). Briefly, the system is based on the stable expression of the human low-affinity Fcγ receptor, CD32, on K562 cells (K32 cell line). K32 cell-based aAPCs were additionally transduced with Letal or with the empty vector as described above, irradiated with 100Gy, and washed twice with RPMI medium. Letal^+-K32 cells or mock transductants were loaded, when indicated, with anti-CD3 (OKT3), or anti-CD3 plus anti-CD28 (mAbs; 9.3) monoclonal antibodies at 0.5 μg/ml for 10 min at room temperature. Loaded &APCs were mixed with CD8^+ T-cells at a 1:2 ratio and the T-cell concentration was maintained at 0.5×10^6 cells/ml throughout the culture. Cultures were pulsed with 1 μCi of [^3H] thymidine from day 2 to day 5 and incorporated radioactivity was determined using a 1450 Microbeta scintillation counter (Wallac, Turku, Finland). The amounts of secreted IL-2 and IFNγ were determined by commercial ELISA, following the manufacturer's instructions (R & D Systems). Flow cytometry was performed with a FACScalibur (BD Biosciences, San Jose, Calif.). […]

[3] = tested on: peripheral CD8^+ T-cells; test: CD8+ lymphocyte proliferation/expansion with K32 aAPCs ([3H] thymidine); format: cell-based, human; details: day 5; three independent experiments
Description: as §1

[4] = tested on: glucose transporter Glut-1 in peripheral CD8^+ T-cells; test: Glut-1 expression in stimulated CD8+ T-cells, flow cytometry; format: cell-based, human; details: 20 hr stimulation
Description: CD8^+ lymphocyte stimulation, cytokine release and glucose metabolism analysis. To analyze the effects of Letal on the T-cell proliferation and production of cytokines, a previously described artificial antigen-presenting cell (aAPC) model was used (Maus et al, Nat. Biotechnol. 20:143-148 (2002)). Briefly, the system is based on the stable expression of the human low-affinity Fcγ receptor, CD32, on K562 cells (K32 cell line). K32 cell-based aAPCs were additionally transduced with Letal or with the empty vector as described above, irradiated with 100Gy, and washed twice with RPMI medium. […] Cultures were pulsed with 1 μCi of [^3H] thymidine from day 2 to day 5 and incorporated radioactivity was determined using a 1450 Microbeta scintillation counter (Wallac, Turku, Finland). The amounts of secreted IL-2 and IFN-γ were determined by commercial ELISA, following the manufacturer's instructions (R & D Systems). […]
Letal signaling increases glucose transporter expression and glucose uptake during T-cell activation. […] To test whether Letal may have a similar effect during T-cell activation, peripheral CD8^+ T-cells were stimulated for 20 hr with anti-CD3, anti-CD3/anti-CD28, anti-CD3/Letal, or Letal alone and the expression of the glucose transporter Glut-1 was analyzed by flow cytometry. […]

[5] = tested on: peripheral CD8^+ T-cells; test: Glucose uptake with [3H]-2-deoxyglucose in stimulated CD8+ T-cells; format: cell-based, human; details: 20 hr stimulation
Description: as §1, with “stimulation, cytokine release” for “stimulation”, “glucose metabolism analysis.” for “cytokine release.”, “20:143-148” for “20(2):143-148”, “aAPCs” for “&APCs”, “IFN-γ” for “IFNγ”, “Systems).” for “Systems). Flow cytometry was performed with a FACScalibur (BD Biosciences, San Jose, Calif.).”
Glucose uptake rates were next measured with [^3H]-2-deoxyglucose in cells stimulated as described above. […]

[6] = tested on: peripheral CD8^+ T-cells; test: Cisplatin-induced apoptosis of pre-stimulated CD8+ lymphocytes, annexin-V; format: cell-based, human; details: pre-stimulated 3 days; 50 μM cisplatin for 17 hr
Description: (§2) Apoptosis assay. The percentage of apoptotic cells was determined after 17 h incubation with 50 μM cisplatin or 18 hs exposure to 0.1 μg/ml anti-CD95 mAb (EOS9.1; Pharmingen) by using the TACS annexin-V apoptosis detection kit, according to the manufacturer's instructions (R & D Systems). Fas expression was determined by flow cytometry by using EOS9.1 as a primary Ab and a PE-labeled anti-mouse IgM (R6-60.2; Pharmingen) as a second Ab.
Cytotoxic chemotherapy can, however, deplete tumor-specific effector T-cells (Lee et al, Nat. Med. 5:677-685 (1999)). Because the glycolytic pathway is implicated in lymphocyte survival (Plas et al, Nat. Immunol. 3:515-521 (2002)), a determination was made as to whether Letal could protect T-cells from early apoptotic death induced by genotoxic drugs.

[7] = tested on: Fas on peripheral CD8^+ T-cells; test: Fas expression on stimulated CD8+ T-cells, flow cytometry; format: cell-based, human; details: 4 days stimulation; compared to CD3/CD28 costimulated T-cells
Description: as §2
Letal engagement protects CD8^+ T-cells from FasL-induced apoptosis. […] Because ovarian carcinomas express FasL and other lymphocyte-depleting death ligands (Rabinowich et al, J. Clin. Invest. 101:2579-2588 (1998)), the prevalence of FasL expression and its impact on TILs was determined in 42 stage III ovarian carcinoma specimens. Strong FasL immunoreactivity was detected in tumor cells in areas of selected specimens (FIG. 10A), as well as in a proportion of stromal leukocytes. To test whether Letal promotes the generation of activated T-cell subpopulations that are able to resist the pro-apoptotic tumor microenvironment, peripheral CD8^+ T-cells were stimulated for 4 days with CD3/Letal, CD3/CD28, or anti-CD3 alone, and expression of Fas was measured by flow cytometry. […]

[8] = biological target: T1, Lymphocyte Effector cell Toxicity Activating Ligand (Letal) (human, UniProt Q8TD07 29-263); test: flow cytometry, 3 µg/ml NKG2D/Fc on Letal-transduced K562 and SKOV3 cells, detected with anti-human IgG mAb
T1 construct: Expressed from the complete open reading frame by retroviral transduction on K562 and SKOV3 cells; also called ULBP4; RAET1E
T1 sequence: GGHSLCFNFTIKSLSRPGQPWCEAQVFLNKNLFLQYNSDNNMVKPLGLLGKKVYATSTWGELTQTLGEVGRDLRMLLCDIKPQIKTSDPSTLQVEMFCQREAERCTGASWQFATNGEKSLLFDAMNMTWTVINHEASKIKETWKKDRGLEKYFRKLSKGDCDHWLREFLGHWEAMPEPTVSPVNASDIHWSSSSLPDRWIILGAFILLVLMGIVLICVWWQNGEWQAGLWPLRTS
Description: Constructs and generation of antibodies. SKOV3 and K562 cells were transduced using retroviral vector MIGR1, generously provided by Warren Pear (University of Pennsylvania). Letal or mock transductants expressing equivalent levels of the green fluorescent protein were sorted and cultured by standard procedures. […] Anti-human IgG mAb (G18-145; Pharmingen, San Diego, Calif.) was used to detect the chimerical molecule.
Letal is a ligand of NKG2D expressed in a variety of normal tissues. […] Expression of the Letal protein was confirmed on transduced cells, but not on mocked transductants, by flow cytometry using serum of Letal-immunized mice (FIG. 1D). […] To evaluate the binding of NKG2D to transduced Letal, a recombinant soluble NKG2D-Fc fusion protein was used, containing the ectodomain of the immunoreceptor (Phe78 through Val216). […] Treatment with phospholipase C decreased binding of sNKG2D to Letal⁺ K562 cells, although binding was higher than to control cells.

## CC1=C(/C=C/C(C)=C/C=C/C(C)=C/C(=O)O)C(C)(C)CCC1 [retinoic acid]
[1]; maximum, after 72 hr stimulation
  decrease of Letal mRNA expression: 6 fold

## TNF-α
[1]; TNF-α 10 ng/ml, 24 h
  increase of basal Letal mRNA levels: 3 fold

## anti-CD3: anti-CD3 (OKT3) monoclonal antibody loaded on Letal^− K32 aAPCs [reference compound]
[2]
  increase of NKG2D expression: same result than CD3/Letal stimulation
[3]
  fewer CD8^+ cells with CD3 stimulation in the absence of Letal: 29%
[4]
  cells with altered Glut-1 expression: 11%
[5]
  glucose uptake rate: little to no effect
[6]
  apoptosis after cisplatin: higher percentage of apoptotic cells
[7]
  Fas expression: markedly higher

B1: recombinant human NKG2D/Fc chimera (R & D Systems) (Fc fusion, UniProt P26718 78-216, looked up)
chain: FLNSLFNQEVQIPLTESYCGPCPKNWICYKNNCYQFFDESKNWYESQASCMSQNASLLKVYSKEDQDLLKLVKSYHWMGLVHIPTNGSWQWEDGSILSPNLLTIIEMQKGDCALYASSFKGYIENCSTPNTYICMQRTV
notes: range 78-216; Bought reagent; also called NKG2D-Fc protein; recombinant soluble NKG2D-Fc fusion protein; Fc part of the bought chimera not given, detected with anti-human IgG mAb
[8]
  binding result: binds
